Data: patent US9394544B2, “Ameliorating oxidative stress in neurodegenerative disease via Nox1 targeting” (University of Central Florida Research Foundation, Inc., priority 2013, dated 2016)

Columns and labels:
SN dopaminergic neurons = experiment: Stereological count of TH-positive dopaminergic neurons in the SN, PQ rat model; type: in vivo; details: vector+PQ group, or Nox1 shRNA+PQ group
Description: The experiments were performed on rats, in accordance with the National Institutes for Health Guide for the Care and Use of Laboratory Animals. All procedures were approved by the local Animal Care and Use Committee. Male Wistar rats (8-10 weeks; Charles River) were maintained in a temperature/humidity-controlled environment under a 12 h light/dark cycle with ad libitum access to food and water. As depicted in FIG. 13A, each animal received four intraperitoneal injections, separated by 1 d, of either vehicle (saline) or PQ (10 mg/kg body weight; b.w.), according to a previously published dose (Manning-Bog et al., 2002; Harraz et al., 2008; Cristovao et al., 2009). All animals were weighed at day 1 and 12. In the studies using the paradigm depicted in FIG. 13A, 4 weeks before starting PQ intraperitoneal injection, animals were stereotaxically injected with various viral constructs at the right SN using the following coordinates: mediolateral, +2.0; anteroposterior, −5.3; dorsoventral, −6.8. […]
Following perfusion with saline and 4% PFA in PBS, brains were removed, and forebrain and midbrain blocks were immersion fixed in 4% PFA and cryoprotected in sucrose. […] The numbers of TH-immunoreactive cells in the SN were counted using an optical fractionator. […]

[1] = system: differentiated human dopaminergic cells (ReNcell VM); experiment: α-Synuclein and Nox1 levels in differentiated ReNcell VM human dopaminergic neurons exposed to PQ; type: cell-based
Excerpt: For the in vitro experiments on human dopaminergic neurons, human mesencephalic neuronal progenitor cell line available from Millipore (catalog number SCC008) was used. The specialty of these cells is that they are isolated from fetal human ventral mesencephalic region and subsequently immortalized by introduction of v-myc. The cells can readily differentiate into dopaminergic neurons upon withdrawal of growth factors (Millipore). The culture method was followed as indicated by the company with little modifications. Briefly, the cells were allowed to grow on laminin-coated (20 μg/ml) dishes in DMEM/F12-containing medium with B27 supplement, glutamax, heparin (10 U/ml), and gentamicin (50 μg/ml). This medium is called maintenance medium. Cell division was allowed by addition of the two growth factors in the medium viz., basic fibroblast growth factor (bFGF) and epidermal growth factor (EGF), both at a concentration of 20 ng/ml. […]
After each respective treatment, cells were fixed in 4% paraformaldehyde (PFA) for 20 min and permeabilized with 0.1% Triton X-100 in PBS for 10 min. […] For quantification of Flag^+ and α-synuclein^+ cells, >30 different fields per coverslip were analyzed on a Nikon inverted fluorescent microscope under a 20× and 40× magnification.

C[n+]1ccc(-c2cc[n+](C)cc2)cc1 [PQ, paraquat]
dopaminergic neuronal loss (stereological count of TH-positive neurons) (SN dopaminergic neurons): 37% | Nox1 level (immunocytochemistry, Western blot) ([1]; 8 h PQ): highly elevated | α-synuclein level ([1]; PQ 800 or 1000 μM, 8 and 24 h): increases over time
